# Experimental data as given in paper PMC9413491, “A Novel and Cross-Species Active Mammalian INDY (NaCT) Inhibitor Ameliorates Hepatic Steatosis in Mice with Diet-Induced Obesity” (Metabolites, 2022).
# Test system: DIO mice
# Test: 28-day treatment of diet-induced obesity (DIO) mice
# Type: in vivo, mouse
# Method: We performed in vivo testing in DIO mice (for 7- and 28-day treatment), an established model designed to study high-fat-diet-induced hepatic steatosis and associated cardiometabolic traits. We established DIO in four-week-old C57BL/6N male mice that were fed a high-fat diet (HFD, 60 kcal% fat, D12492; Research Diets, Inc.; New Brunswick, NJ, USA) until 11 weeks of age.
# Mice were housed at a temperature of 22–24 °C, with a day/night cycle of 12/12 h (07:00-19:00–07:00) and had access to the appropriate diet and tap water ad libitum. Animals allocated to the pair-feeding group were fed the same amount of food as the corresponding treatment group had consumed the day before. Food was only withdrawn for overnight fasting on the penultimate study day before the section on the final day. We randomised groups of n = 12 for treatment and n = 8 for pair-feeding cage-wise according to random fed blood glucose levels and body weight before the study treatment was started. For all animals, the high-fat diet was started at the same age.
# We treated DIO mice with the inhibitor or corresponding vehicle (5% DMSO/10% Cremophor® EL/85% water) twice a day at the same time by oral gavage according to their grouping (5, 15, and 50 mg/kg dose groups, and vehicle control groups). During the study, we measured body weight and blood glucose. We measured glucose concentrations in tail tip blood samples with the “Accu-Chek® Performa” glucometer (Roche, Basel, Switzerland, range <33.3 mmol/L). We determined random fed blood glucose and fasting blood glucose after overnight fasting.
# An intraperitoneal glucose tolerance test was performed after an overnight fasting period. Mice were injected with 1g/kg glucose and blood glucose was measured over a period of 180 min.
# At the end of study day 28, we obtained blood and liver samples. In anesthetised animals, we collected retro-orbital blood samples in non-coated tubes (Sarstedt, Inc., Nümbrecht, Germany). Then, we sacrificed animals by cervical dislocation. We dissected and weighed the livers and immediately froze liver samples in liquid nitrogen for further analysis.
# For serum sample generation, we centrifuged blood at 4000× g for 10 min and dispensed serum samples into a 110 µL plus an additional aliquot. Samples were stored at −80 °C. For Piccolo® system (Abaxis, Inc., Union City, CA, USA) analysis (lipid panel including triglycerides and cholesterol), we used a 110 µL serum aliquot.
# The frozen tissue from liver samples were used to determine the triglyceride content via triglyceride assay according to the manufacturer’s protocol (Sigma-Aldrich, Cat.No.TR0100) using glycerol as a standard (Sigma-Aldrich, Glycerol G7793, St. Louis, MO, USA).
# We determined body composition in mice using the non-invasive Bruker Minispec Instrument MQ 10 NMR Analyser (Bruker, Billerica, MA, USA). We placed mice in a clear, plastic cylinder and kept them immobile by inserting a tight-fitting plunger into the cylinder. For scanning, the tube was placed in the sample chamber for approximately one minute. Body composition was calculated and related to whole body weight.
# We isolated total RNA from individual liver samples from all animals in 1.5 mL Trizol reagent (Life Technologies, Carlsbad, CA, USA) at 4 °C according to the manufacturer’s instructions. Then, we purified total RNA utilising the RNeasy Mini Kit (Qiagen, Hilden, Germany) with DNase-treatment to completely remove genomic DNA according to the instructions of the manufacturer. Subsequently, RNA was reverse transcribed using Superscript II RnaseH Reverse Transcriptase (Life Technologies) and subjected to Taqman analysis using the Taqman Fast Advanced Master Mix (Applied Biosystems, Weiterstadt, Germany). The Mix contains AmpliTaq® Fast DNA Polymerase, AmpErase UNG, dNTPs with dUTP, passive reference Rox and optimised buffer components. Quantitative PCR was performed in the Quantstudio 7 Flex System (Applied Biosystems, Weiterstadt, Germany). […]
# [1] = 15 mg/kg oral twice daily, 28 days
# [2] = 15 mg/kg oral twice daily, 28 days, p < 0.001
# [3] = 15 mg/kg oral twice daily, 28 days, p < 0.01
# [4] = 15 mg/kg oral twice daily, 28 days, p < 0.05
smiles,measurement,setting,value
O=C(Nc1cc(Cl)cc(C(F)(F)F)c1)OCCC(F)(F)F [ETG-5773],Glucose excursion AUC (IPGTT) vs pair-fed control,15 mg/kg oral twice daily,not significant
same,Glucose tolerance (IPGTT) vs vehicle control and pair-fed group,"15 mg/kg oral twice daily, 1 g/kg glucose i.p., all p < 0.05",significantly improved glucose tolerance
same,Plasma cholesterol concentrations,[1],no effect
same,Plasma triglyceride concentrations vs vehicle,[1],though not compared to the vehicle
same,Reduction in fasting insulin vs pair-fed,"15 mg/kg oral twice daily, 28 days, non-significant p = 0.2",70%
same,Reduction in body weight vs vehicle group,"15 mg/kg oral twice daily, 28 days, p < 0.0001",19%
same,Reduction in fasting blood glucose vs pair-fed,[2],25%
same,Reduction in hepatic triglyceride content vs pair-fed,[2],25%
same,Plasma triglyceride concentrations vs pair-fed,[3],slightly increased
same,Reduction in body weight vs pair-fed group,[3],14%
same,Decrease in fasting blood glucose vs vehicle,[4],17%
same,Reduction in fasting insulin vs vehicle,[4],75%
same,Glucose excursion AUC (IPGTT) vs vehicle control,"15 mg/kg oral twice daily, p < 0.05",significantly reduced
same,Hepatic Fasn mRNA vs pair-fed group,"15 mg/kg twice daily, 28 days, p 0.09",trend for reduction
same,Hepatic Srebf1 mRNA vs vehicle control and pair-fed,"15 mg/kg twice daily, 28 days, p < 0.0001",significantly downregulated
same,Hepatic Scd1 mRNA vs vehicle control and pair-fed,"15 mg/kg twice daily, 28 days, p < 0.0001 vehicle, p < 0.001 pair-fed",significantly downregulated
same,Hepatic Acly mRNA vs vehicle control and pair-fed,"15 mg/kg twice daily, 28 days, p < 0.001 vehicle, p < 0.01 pair-fed",significantly downregulated
same,Hepatic Fasn mRNA vs vehicle control,"15 mg/kg twice daily, 28 days, p < 0.01",significantly downregulated
same,Hepatic Acc1 mRNA vs vehicle control,"15 mg/kg twice daily, 28 days, p < 0.05",significantly downregulated
same,Hepatic Acc1 mRNA vs pair-fed group,"15 mg/kg twice daily, 28 days, p < 0.1",trend for reduction
same,Body fat as percentage of body weight vs vehicle and pair-fed,"15 mg/kg twice daily, day 22",significant decrease
same,Lean mass as percentage of body weight vs vehicle and pair-fed,"15 mg/kg twice daily, day 22",significant increase
same,Fat mass (NMR) vs vehicle control and pair-fed group,"15 mg/kg twice daily, day 22, p < 0.0001 vs vehicle, p < 0.01 vs pair-fed",markedly reduced
same,Lean mass (NMR) vs vehicle control,"15 mg/kg twice daily, day 22, p < 0.01, not significant vs pair-fed",significantly lower
